Measured values reported in ChEMBL document CHEMBL3507680, “University of Dundee, Gates Library screen for HepG2 cell viability”.

Experiment: Human HepG2 cell viability assay in 384 well format
Assay type: toxicity, cell-based
Parameters: dose 125 nL, time 70.5 hour; concentration not given beside the values
Conditions: HepG2 cells, read-out: Inhibition

Row | Compound | cytotoxicity at 70.5 h
1 | O=C(NC[C@H]1C[C@@H]2CN(C(=O)c3ccco3)C[C@@H]2O1)c1ccsc1 | -3.16%
2 | COCC1c2nnn(C)c2CCN1C(=O)Cc1ccccn1 (stereo not given) | -3.79%
3 | Cn1cc(C(=O)N[C@@H]2CN(Cc3ccoc3)[C@@H]3CCCO[C@@H]32)cn1 | -5.02%
4 | CCN1CC2(CC1=O)CN(C(=O)NC(C)C)CCN(S(C)(=O)=O)C2 (stereo not given) | -2.48%
5 | CCN1CC2(CC1=O)CN(C(C)=O)CCN(C(=O)NC)C2 (stereo not given) | -3.8%
6 | CCN1CC2(CC1=O)CN(C(=O)NC(C)C)CCN(C(=O)C(C)C)C2 (stereo not given) | -3.19%
7 | N#Cc1cccc(C(=O)NC2CCc3c(ccc(=O)n3CC3CC3)C2)c1 (stereo not given) | -2.82%
8 | COc1ccc(CC(=O)N2CC[C@@H]3CN(C)S(=O)(=O)[C@@H]3CC2)cc1 | -5.74%
9 | COCC(=O)N1C[C@H]2CCC[C@@]2(COC)C1 | -5.02%
10 | CCOCC(=O)N1C[C@H]2CCC[C@@]2(COC)C1 | -7.78%
11 | Cn1ccnc1CN1CCC2(CC1)COCCN(c1ncccn1)C2 | -5.62%
12 | CCC(C)(C)C(=O)N1C[C@@H]2C[C@@H](c3nnc(C)[nH]3)O[C@@H]2C1 | -8.87%
13 | COc1cccc(NC(=O)N2CC[C@@H]3CN(C)S(=O)(=O)[C@@H]3CC2)c1 | 20.9%
14 | COCCN(C)C(=O)c1cc2c(s1)CCN2C(=O)C1CC1 | 2.55%
15 | c1c(CN2CCOCC2)nc2n1CCN(CC1CC1)C2 | -3.69%
16 | Cn1ccc(C(=O)N2CCC3(CC2)CC(Nc2cnccn2)CO3)n1 (stereo not given) | -7%
17 | Cc1cccc(CN2CCC3(CC(C(=O)NCC(C)C)=NO3)C2)c1 (stereo not given) | -5.06%
18 | COCC(=O)N1CCCC2(CCN(c3ccsc3)C2=O)C1 (stereo not given) | 32.8%
19 | N#Cc1ccc(C(=O)N2CC[C@H]3[C@@H]2CCC(=O)N3c2ccccc2)cc1 | -12%
20 | Cn1cccc1C(=O)N1CCn2cc(CNC(=O)CC3CC3)nc2C1 | -10.2%
21 | COCCC(=O)N1CC[C@@H](N(C)C)[C@@H]1Cc1ccccc1 | -3.88%
22 | O=C(c1ccncc1)N1CCCn2c(CN3CCCCC3)nnc2C1 | -8.6%
23 | COCC1CN(C(=O)c2ccnnc2)Cc2c1cnn2C (stereo not given) | -1.23%
24 | COc1ncccc1C(=O)N1CCC2(CC1)CC(OC)CO2 (stereo not given) | -6.77%
25 | CC(=O)N1CCCC2(C1)CN(c1nncs1)CCO2 (stereo not given) | -4.62%

Row | Compound | cytotoxicity at 70.5 h
26 | c1cncc(N2CCO[C@H]3CN(CC4CCOC4)C[C@H]32)c1 (stereo not given in full) | -3.42%
27 | CC1N(c2cnn(C)c2)C(=O)COC12CCN(c1ccccn1)CC2 (stereo not given) | -2.76%
28 | CO[C@@H]1CCN(C(=O)Cc2cccc(F)c2)[C@H]1Cc1cccnc1 | -3.88%
29 | CC1N(c2cnn(C)c2)C(=O)COC12CCN(CC1CC1)CC2 (stereo not given) | -3.07%
30 | CO[C@@H]1CCN(C(=O)Cc2ccsc2)[C@H]1Cc1cccnc1 | -5.91%
31 | Cc1nc(CN2CCN(C)C(=O)C23CCN(C(C)C)CC3)cs1 | -9.48%
32 | CCN1CCN(C)C(=O)C12CCN(Cc1csc(C)n1)CC2 | -8.47%
33 | COc1cccc(CC(=O)N2CC[C@@H]3[C@H](CC2)N(C)CCS3(=O)=O)c1 | -2.21%
34 | CN1CCN(CC2CC2)C(=O)C12CCN(C(=O)CC(F)(F)F)CC2 | -4.4%
35 | CNC(=O)[C@H]1C[C@@H]2CN(Cc3cccc(C)c3)C[C@H]1O2 | -6.34%
36 | O=C([C@H]1CC[C@@H]2[C@@H](CCN2C2CCOCC2)O1)N1CCOCC1 | -6.52%
37 | O=C([C@H]1CC[C@@H]2[C@@H](CCN2C2CCCCC2)O1)N1CCOCC1 | -7.67%
38 | COC[C@@]12CCC[C@@H]1CN(C(=O)CN(C)C)C2 | -6.84%
39 | Cc1ccc(CN2CCc3onc(C(=O)NC(C)C)c3C2)o1 | -8.41%
40 | COCC1COCCC12CCN(Cc1nccs1)CC2 (stereo not given) | -5.6%
41 | C1CC(N2Cc3nnn(CC4CC4)c3C(COCC3CC3)C2)C1 (stereo not given) | -3.4%
42 | Cc1noc(C)c1CN1CC[C@@H](OCC2CC2)[C@@H](Cc2ccccc2)C1 | -4.91%
43 | CCn1cc2c(n1)CN(CC1CC1)CC2COCC1CC1 (stereo not given) | -15%
44 | O=C1COC2(CCN(Cc3ccoc3)CC2)CN1c1ccsc1 | -15.9%
45 | CCn1cc2c(n1)CN(Cc1nccs1)CC2COCC1CC1 (stereo not given) | -11%
46 | CC(=O)N1CCOCC2(CN(Cc3ccc(C)o3)CCO2)C1 (stereo not given) | 28.8%
47 | O=C([C@@H]1C[C@@H]2CCN(CCc3ccccc3)C[C@H]2O1)N1CCCC1 | -3.84%
48 | Cc1ccc(CN2CCCn3nnc(COCC4CC4)c3C2)s1 | -1.67%
49 | Cc1noc(C)c1CN1C[C@@H]2COC[C@H](C(=O)N3CCCCO3)[C@@H]2C1 | -13%
50 | Cn1cc(CN2CCn3cc(CNC(=O)c4cccn4C)nc3C2)cn1 | -2.17%

Row | Compound | cytotoxicity at 70.5 h
51 | Cc1occc1C(=O)N1CCO[C@H]2[C@@H](Oc3ccccn3)CC[C@@H]21 | 4.46%
52 | Cc1ccc(CN2C[C@@H]3COC[C@H](C(=O)N4CCCCO4)[C@@H]3C2)o1 | -8.64%
53 | O=C(c1cscn1)N1CC[C@]2(C[C@@H](OCCN3CCCC3)CO2)C1 | -6.54%
54 | Cc1cccc(COC[C@H]2CC[C@H]3[C@H](CCN3C(=O)CC3CC3)O2)n1 | -6.89%
55 | CCN1C(=O)CCC12CCCN(Cc1nccs1)CC2 (stereo not given) | -8.57%
56 | CN1CC[C@@H]2OC[C@H](C(=O)N(C)Cc3ccccn3)C[C@@H]2C1 | 2.32%
57 | O=C(C[C@@H]1COC[C@H]2CN(Cc3cccnc3)C[C@@H]12)NCC1CC1 | -4.39%
58 | CN1CCN(C(=O)[C@H]2C[C@H]3[C@H](CCN3Cc3cccs3)O2)CC1 | -2.03%
59 | Cc1cnc(N2CCC3(CC2)CN(Cc2cccs2)CCO3)nc1 | -8.99%
60 | Fc1cnc(N2CCOC3(CCN(Cc4cccs4)CC3)C2)nc1 | -6.76%
61 | Cc1ccc(CN2CCc3onc(C(=O)NCCN(C)C)c3C2)o1 | -8.28%
62 | COCCN1C[C@@H]2COC[C@@H](CC(=O)NCc3cccnc3)[C@@H]2C1 | -16.6%
63 | CCOC1COC2(CCN(Cc3cccnc3OC)CC2)C1 (stereo not given) | -1.38%
64 | c1c(CN2CCCC2)nc2n1CCN(C1CCOCC1)C2 | -0.565%
65 | O=C(N1CCOCC1)[C@@]12CCO[C@@H]1CCN(Cc1ccncc1)C2 | -3.44%
66 | CN1CCOCC12CCN(Cc1ccoc1)CC2 | -13.2%
67 | Cc1ccc2c(n1)N(CCN(C)C)CCN(C(=O)c1ccc[nH]1)C2 | 0.599%
68 | CN(Cc1cn2c(n1)CN(CC1CC1)CC2)Cc1ccco1 | -11.8%
69 | CN(Cc1cn2c(n1)CN(c1ncc(F)cn1)CC2)Cc1ccco1 | -8.98%
70 | O=C(NC[C@]12COC[C@H]1CN(Cc1cccnc1)C2)c1ccno1 | -14.7%
71 | c1cncc(CN2CC[C@H]3O[C@@H](COCC4CC4)CC[C@H]32)c1 | -5.15%
72 | c1cncc(CN2CCc3ncnc(C4CCOC4)c3CC2)c1 (stereo not given) | 22.8%
73 | COCCN1C[C@@H]2CCCO[C@@H]2[C@H](N(C)Cc2ccco2)C1 | -2.22%
74 | CC(C)N1CC[C@H]2[C@H](C[C@@H](Cn3cccn3)N2c2nccs2)C1 | -4.28%
75 | CN(C)CCN1CCOCC2(C1)CN(Cc1ccsc1)CCO2 (stereo not given) | -9.68%
